Test results reported in patent publication US7320984B2, “Remedies or preventives for urinary frequency or urinary incontinence and morphinan derivatives having nitrogen-containing heterocyclic group” (Toray Industries, Inc., priority 2002, dated 2008).

Each molecule was assayed on rhythmic bladder contractions in rats (assay: Inhibitory effect against rhythmic bladder contractions in rats). Conditions: anesthetized female SD rats, intravenous, dose 0.001 mg/kg body weight.
Assay type: in vivo
Method: Inhibitory Effect Against Rhythmic Bladder Contractions in Rats
Female SD rats were anesthetized with an intraperitoneal administration of urethane (1.0 g/kg). A polyethylene tube was inserted from the urethra to the bladder and the tube was fixed by ligation. Then physiological saline was appropriately infused (infusion rate: about 0.2 ml/min., maximum: about 1.5 ml/animal) through the tube to cause rhythmic bladder contractions. The rhythmic bladder contractions were monitored by measuring the intravesical pressure through a polyethylene tube inserted into the bladder. After confirming that stable rhythmic bladder contractions occurred at least 10 times, a vehicle containing a prescribed dose of a test compound was intravenously administration at a dose of 1 ml/kg. In cases where the intravesical pressure, within 10 minutes after the administration of the test compound, decreased to 50% or less of the intravesical pressure immediately […] the administration, the test compound was judged as having inhibitory effect against urinary bladder contractions, and the time period until the intravesical pressure returned to more than 50% was defined as inhibitory time of rhythmic bladder contractions. As the vehicle for administration, physiological saline was used for test compounds 4, 7, 8, 9, 10, 13, 29, 30, 31, 33, 34, 75, 76, 79, 80, 81, 82, 84, 89, 90, 91, 93, 94, 95, 110 and 111, aqueous 10% dimethylsulfoxide (DMSO) solution was used for test compounds 11, 12, 14, 15, 16, 17, 18, 20, 21, 23, 28, 46, 47, 50, 55, 56, 57, 58, 59, 60, 61, 62, 63, 64, 65, 66, 68, 69, 70, 71, 72, 73, 74, 77, 78, 83, 85, 86, 87, 88, 92, 96, 97, 98, 99, 100, […], 103, 104, 105, 106, 107, 108 and […], aqueous 20% dimethylsulfoxide (DMSO) solution was used for test compounds 1, 2, 67 and 101, and aqueous 5% xylitol solution was used for test compounds 5 and 35. The aqueous 10% DMSO solution, aqueous 20% DMSO solution and the aqueous 5% xylitol solution per se, which may influence on the inhibitory time of rhythmic bladder contractions, were also tested at a dose of 1 ml/kg. With any of the compounds, prolongation of the inhibitory time of rhythmic bladder contractions was observed when compared with that obtained in the group to which the vehicle alone was administered.

| SMILES | Mean Inhibitory Time of Rhythmic Bladder Contractions [min] |
| --- | --- |
| O=C1c2ccc(F)cc2C(=O)N1[C@H]1CC[C@@]2(O)[C@H]3Cc4ccc(O)c5c4[C@@]2(CCN3CC2CC2)[C@H]1O5 [Compound 68, N-(17-cyclopropylmethyl-4,5α-epoxy-3,14-dihydroxymorphinan-6α-yl)-4-fluorophthalimide] | 18.0 |

Same assay, conditions: anesthetized female SD rats, intravenous, dose 0.005 mg/kg body weight

| SMILES | Mean Inhibitory Time of Rhythmic Bladder Contractions [min] |
| --- | --- |
| O=C1c2ccccc2C(=O)N1[C@@H]1CC[C@@]2(O)[C@H]3Cc4ccc(O)c5c4[C@@]2(CCN3CC2CC2)[C@H]1O5 [Compound 11, N-(17-cyclopropylmethyl-4,5α-epoxy-3,14-dihydroxy-morphinan-6β-yl)-phthalimide] | 15.5 |
| C=CCN1CC[C@]23c4c5ccc(O)c4O[C@H]2[C@@H](N2C(=O)c4cccc(F)c4C2=O)CC[C@@]3(O)[C@H]1C5 [Compound 63, N-(17-allyl-4,5α-epoxy-3,14-dihydroxymorphinan-6α-yl)-3-fluorophthalimide] | 16.1 |

Same assay, conditions: anesthetized female SD rats, intravenous, dose 0.01 mg/kg body weight

| SMILES | Mean Inhibitory Time of Rhythmic Bladder Contractions [min] |
| --- | --- |
| C=CCN1CC[C@]23c4c5ccc(O)c4O[C@H]2[C@@H](N2C(=O)c4ccccc4C2=O)CC[C@@]3(O)[C@H]1C5 [Compound 64, N-(17-allyl-4,5α-epoxy-3,14-dihydroxymorphinan-6α-yl)-phthalimide] | 20.8 |
| O=S1(=O)c2ccccc2S(=O)(=O)N1[C@@H]1CC[C@@]2(O)[C@H]3Cc4ccc(O)c5c4[C@@]2(CCN3CC2CC2)[C@H]1O5 [Compound 107, 2-(17-cyclopropylmethyl-4,5α-epoxy-3,14-dihydroxy-morphinan-6β-yl)-benzo[1,3,2]dithiazol-1,1,3,3-tetraoxide] | 14.1 |
| C=CCN1CC[C@]23c4c5ccc(O)c4O[C@H]2[C@@H](N2C(=O)c4ccc(F)cc4C2=O)CC[C@@]3(O)[C@H]1C5 [Compound 65, N-(17-allyl-4,5α-epoxy-3,14-dihydroxymorphinan-6α-yl)-4-fluorophthalimide] | 18.6 |
| Cc1cccc2c1C(=O)N([C@@H]1CC[C@@]3(O)[C@H]4Cc5ccc(O)c6c5[C@@]3(CCN4CC3CC3)[C@H]1O6)C2=O [Compound 18, N-(17-cyclopropylmethyl-4,5α-epoxy-3,14-dihydroxy-morphinan-6β-yl)-3-methylphthalimide] | 13.7 |

Same assay, conditions: anesthetized female SD rats, intravenous, dose 0.03 mg/kg body weight

| SMILES | Mean Inhibitory Time of Rhythmic Bladder Contractions [min] |
| --- | --- |
| C=CCN1CC[C@]23c4c5ccc(O)c4O[C@H]2[C@@H](N2C(=O)C4=C(CCCC4)C2=O)CC[C@@]3(O)[C@H]1C5 [Compound 74, N-(17-allyl-4,5α-epoxy-3,14-dihydroxymorphinan-6α-yl)-3,4,5,6-tetrahydrophthalimide] | 24.0 |
| C=CCN1CC[C@]23c4c5ccc(O)c4O[C@H]2[C@H](N2C(=O)c4cccc(C)c4C2=O)CC[C@@]3(O)[C@H]1C5 [Compound 60, N-(17-allyl-4,5α-epoxy-3,14-dihydroxymorphinan-6β-yl)-3-methylphthalimide] | 19.7 |
| C=CCN1CC[C@]23c4c5ccc(O)c4O[C@H]2[C@H](N2Cc4cccc(F)c4C2=O)CC[C@@]3(O)[C@H]1C5 [Compound 88, 2-(17-allyl-4,5α-epoxy-3,14-dihydroxy-morphinan-6β-yl)-7-fluoro-2,3-dihydro-isoindol-1-one] | 10.7 |
| CC(=O)O[C@@]12CC[C@@H](N3C(=O)c4ccccc4C3=O)[C@@H]3Oc4c(O)ccc5c4[C@@]31CCN(CC1CC1)[C@@H]2C5 [Compound 91, N-(14-acetoxy-17-cyclopropylmethyl-4,5α-epoxy-3-hydroxymorphinan-6β-yl)-phthalimide] | 14.7 |

Same assay, conditions: anesthetized female SD rats, intravenous, dose 0.1 mg/kg body weight

| SMILES | Mean Inhibitory Time of Rhythmic Bladder Contractions [min] |
| --- | --- |
| O=c1[nH]c2ccccc2c(=O)n1[C@@H]1CC[C@@]2(O)[C@H]3Cc4ccc(O)c5c4[C@@]2(CCN3CC2CC2)[C@H]1O5 [Compound 104, 3-(17-cyclopropylmethyl-4,5α-epoxy-3,14-dihydroxy-morphinan-6β-yl)-1H-quinazolin-2,4-dione] | 13.5 |
| C=CCN1CC[C@]23c4c5ccc(O)c4O[C@H]2[C@H](N2CC4=C(CCCC4)C2=O)CC[C@@]3(O)[C@H]1C5 [Compound 84, 2-(17-allyl-4,5α-epoxy-3,14-dihydroxy-morphinan-6-yl)-2,3,4,5,6,7-hexahydro-isoindol-1-one] | 9.3 |
| C=CCN1CC[C@]23c4c5ccc(O)c4O[C@H]2[C@H](N2C(=O)c4cc(Cl)c(Cl)cc4C2=O)CC[C@@]3(O)[C@H]1C5 [Compound 59, N-(17-allyl-4,5α-epoxy-3,14-dihydroxymorphinan-6β-yl)-4,5-dichlorophthalimide] | 6.1 |
| C=CCN1CC[C@]23c4c5ccc(O)c4O[C@H]2[C@H](N2C(=O)c4ccc(Cl)cc4C2=O)CC[C@@]3(O)[C@H]1C5 [Compound 57, N-(17-allyl-4,5α-epoxy-3,14-dihydroxymorphinan-6β-yl)-4-chlorophthalimide] | 24.2 |
| C=CCN1CC[C@]23c4c5ccc(O)c4O[C@H]2[C@H](N2Cc4ccccc4C2=O)CC[C@@]3(O)[C@H]1C5 [Compound 86, 2-(17-allyl-4,5α-epoxy-3,14-dihydroxy-morphinan-6β-yl)-2,3-dihydro-isoindol-1-one] | 12.1 |
| O=C1CC(c2ccccc2)C(=O)N1[C@@H]1CC[C@@]2(O)[C@H]3Cc4ccc(O)c5c4[C@@]2(CCN3CC2CC2)[C@H]1O5 (stereo partly drawn) [Compound 71, N-(17-cyclopropylmethyl-4,5α-epoxy-3,14-dihydroxymorphinan-6β-yl)-2-phenyl-succinimide] | 24.9 |
| CCCN1CC[C@]23c4c5ccc(O)c4O[C@H]2[C@H](N2C(=O)c4ccccc4C2=O)CC[C@@]3(O)[C@H]1C5 [Compound 94, N-(4,5α-epoxy-3,14-dihydroxy-17-propyl-morphinan-6β-yl)-phthalimide] | 11.9 |
| O=S1(=O)c2ccccc2CN1[C@@H]1CC[C@@]2(O)[C@H]3Cc4ccc(O)c5c4[C@@]2(CCN3CC2CC2)[C@H]1O5 [Compound 110, N-(17-cyclopropylmethyl-4,5α-epoxy-3,14-dihydroxy-morphinan-6β-yl)-2,3-dihydro-benzo[d]isothiazol-1,1-dioxide] | 12.6 |
| CN1CC[C@]23c4c5ccc(O)c4O[C@H]2[C@H](N2CCSc4ccccc42)CC[C@H]3[C@H]1C5 [Compound 2, 4,5α-epoxy-6β-(3,4-dihydro-2H-benzo[1,4]thiazino)-17-methyl-morphinan-3-ol] | 15.5 |
| O=C1c2cc(Cl)c(Cl)cc2C(=O)N1[C@@H]1CC[C@@]2(O)[C@H]3Cc4ccc(O)c5c4[C@@]2(CCN3CC2CC2)[C@H]1O5 [Compound 55, N-[17-(cyclopropylmethyl)-4,5α-epoxy-3,14-dihydroxymorphinan-6β-yl]-4,5-dichlorophthaimide] | 15.0 |
| C=CCN1CC[C@]23c4c5ccc(O)c4O[C@H]2[C@@H](N2Cc4ccccc4C2=O)CC[C@@]3(O)[C@H]1C5 [Compound 87, 2-(17-allyl-4,5α-epoxy-3,14-dihydroxy-morphinan-6α-yl)-2,3-dihydro-isoindol-1-one] | 6.4 |
| C=CCN1CC[C@]23c4c5ccc(O)c4O[C@H]2[C@@H](N2CC4=C(CCCC4)C2=O)CC[C@@]3(O)[C@H]1C5 [Compound 85, 2-(17-allyl-4,5α-epoxy-3,14-dihydroxy-morphinan-6α-yl)-2,3,4,5,6,7-hexahydro-isoindol-1-one] | 6.9 |
| O=C1c2cccc(O)c2C(=O)N1[C@@H]1CC[C@@]2(O)[C@H]3Cc4ccc(O)c5c4[C@@]2(CCN3CC2CC2)[C@H]1O5 [Compound 96, N-(17-cyclopropylmethyl-4,5α-epoxy-3,14-dihydroxy-morphinan-6β-yl)-3-hydroxy-phthalimide] | 12.9 |

Same assay, conditions: anesthetized female SD rats, intravenous, dose 1.0 mg/kg body weight

| SMILES | Mean Inhibitory Time of Rhythmic Bladder Contractions [min] |
| --- | --- |
| O=C1C(Cc2ccccc2)CCN1[C@@H]1CC[C@@]2(O)[C@H]3Cc4ccc(O)c5c4[C@@]2(CCN3CC2CC2)[C@H]1O5 (stereo partly drawn) [Compound 47, 1-(17-cyclopropylmethyl-4,5α-epoxy-3,14-dihydroxy-morphinan-6β-yl)-3-benzyl-pyrrolidin-2-one] | 21.8 |
| O=C1C/C(=C\C2CCCCC2)C(=O)N1[C@@H]1CC[C@@]2(O)[C@H]3Cc4ccc(O)c5c4[C@@]2(CCN3CC2CC2)[C@H]1O5 [Compound 23, N-(17-cyclopropylmethyl-4,5α-epoxy-3,14-dihydroxy-morphinan-6β-yl)-2-cyclohexylmethylidene-succinimide] | 32.0 |
